Measured values published in patent publication US20130231276A1, “Combination Of An Aminoacyl-tRNA Synthetase Inhibitor With A Further Antibacterial Agent For Attenuating Multiple Drug Resistance” (BROWN UNIVERSITY, priority 2010, published 2013).
Converted amounts (≈) assume the structure as drawn. Where two headings read alike, the source gives them in different places.

Legend:
[1] = system: Streptomyces coelicolor M600; assay: MIC on Difco Nutrient Agar with sub-lethal indolmycin, strain M600 (wild-type); assay type: cell-based; settings: for MIC: Streptomyces coelicolor, M600, 48 h, 30° C., 48 hours
Description: (§1) Changes in the susceptibility of S. coelicolor to three clinically used antibacterial drugs (chloramphenicol, erythromycin, and vancomycin) grown in the presence of indolmycin were assessed. The effects of antibiotic combinations were assessed in wild-type S. coelicolor, which has an auxiliary, indolmycin-resistant isoform of tryptophanyl-tRNA synthetase (TrpRS1). We also examined these combinations in three other indolmycin-resistant strains of S. coelicolor—a trpRS2 null strain (B728) (8) and two strains lacking trpRS1 with resistance conferring point mutations in trpRS2 (B734 with TrpRS2 H48N and B735 with TrpRS2 H48Q) (9). These strains were selected because the strong antibacterial activity of indolmycin precluded testing of this hypothesis in the indolmycin-sensitive trpRS1 null strain of S. coelicolor. The effects were measured in terms of changes in the chloramphenicol, erythromycin, and vancomycin MICs of the four strains over a range of sub-lethal indolmycin concentrations.
(§2) Streptomyces coelicolor strains were grown on DIFCO Nutrient Agar supplemented with indolmycin (0-100 μg/mL) and one of the following antibacterial agents: chloramphenicol (10-80 μg /mL), erythromycin (1-110 μg/mL), and vancomycin (30-140 μg/mL). The strains were grown on the media at 30° C. for 48 hours, after which point growth was assessed visually.
(§3) A 50 mg/mL (active enantiomer) stock solution of indolmycin was prepared by dissolving the indolmycin in DMSO. The concentrations of each stock solution reflect the actual concentration of the pharmacologically active substance. Aliquots of the stock solutions were added directly to molten, sterile DIFCO Nutrient Agar prior to solidification. Streptomyces coelicolor spores were directly spread onto the surface of each DNA plate and the plates were incubated at 30° C. for about 48 hours. Growth was assessed visually after the incubation period. Minimal inhibitory concentrations (MICs) reflect the drug concentrations at which no Streptomyces coelicolor growth was observed.
(§4) All Streptomyces strains were grown on Difco Nutrient Agar at 30° C. The MICs were assessed after 48 hours.

[2] = system: Streptomyces coelicolor B728; assay: MIC on Difco Nutrient Agar with sub-lethal indolmycin, strain B728 (trpRS2 null); assay type: cell-based
Description: as §1, §2, §3, §4

S. coelicolor = assay: Indolmycin MIC against S. coelicolor; assay type: cell-based, Streptomyces coelicolor; settings: indolmycin alone
[3] = system: methicillin-resistant Staphylococcus aureus; settings: cited from earlier work
Helicobacter pylori = settings: cited from earlier work
[4] = biological target: tryptophanyl-tRNA synthetase (TrpRS1) (Streptomyces coelicolor, UniProt Q8CJX0); settings: TrpRS1 of S. coelicolor, reference (19), cited from earlier work
Chain of tryptophanyl-tRNA synthetase (TrpRS1) (Q8CJX0 whole entry): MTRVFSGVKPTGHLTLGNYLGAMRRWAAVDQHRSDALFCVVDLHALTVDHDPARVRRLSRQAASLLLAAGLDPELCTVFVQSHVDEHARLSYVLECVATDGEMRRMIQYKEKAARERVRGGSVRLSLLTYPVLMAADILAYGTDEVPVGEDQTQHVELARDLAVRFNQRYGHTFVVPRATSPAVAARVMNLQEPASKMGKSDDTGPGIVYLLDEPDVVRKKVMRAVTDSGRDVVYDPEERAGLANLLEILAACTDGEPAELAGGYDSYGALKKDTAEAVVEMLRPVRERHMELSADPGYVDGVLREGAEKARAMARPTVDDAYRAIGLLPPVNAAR

[5] = strain M600, 0 μg/ml Indolmycin, read-out: MIC
[6] = strain M600, 10 μg/ml Indolmycin, read-out: MIC
[7] = strain M600, 25 μg/ml Indolmycin, read-out: MIC
[8] = strain M600, 50 μg/ml Indolmycin, read-out: MIC
[9] = strain M600, 75 μg/ml Indolmycin, read-out: MIC
[10] = strain M600, 100 μg/ml Indolmycin, read-out: MIC
[11] = Streptomyces coelicolor, B728, 48 h, strain B728, 0 μg/ml Indolmycin, 30° C., 48 hours
[12] = Streptomyces coelicolor, B728, 48 h, strain B728, 10 μg/ml Indolmycin, 30° C., 48 hours
[13] = Streptomyces coelicolor, B728, 48 h, strain B728, 25 μg/ml Indolmycin, 30° C., 48 hours
[14] = Streptomyces coelicolor, B728, 48 h, strain B728, 50 μg/ml Indolmycin, 30° C., 48 hours
[15] = Streptomyces coelicolor, B728, 48 h, strain B728, 75 μg/ml Indolmycin, 30° C., 48 hours
[16] = Streptomyces coelicolor, B728, 48 h, strain B728, 100 μg/ml Indolmycin, 30° C., 48 hours

With CN[C@H](CC(C)C)C(=O)N[C@H]1C(=O)N[C@@H](CC(N)=O)C(=O)N[C@H]2C(=O)N[C@H]3C(=O)N[C@H](C(=O)N[C@H](C(=O)O)c4cc(O)cc(O)c4-c4cc3ccc4O)[C@H](O)c3ccc(c(Cl)c3)Oc3cc2cc(c3O[C@@H]2O[C@H](CO)[C@@H](O)[C@H](O)[C@H]2O[C@H]2C[C@](C)(N)[C@H](O)[C@H](C)O2)Oc2ccc(cc2Cl)[C@H]1O [Vancomycin, vancomycin] the MIC ([1]; strain M600, 0 μg/ml Indolmycin) was 110 µg/mL, the MIC ([1]; strain M600, 10 μg/ml Indolmycin) was 110 µg/mL and the MIC ([1]; strain M600, 25 μg/ml Indolmycin) was 110 µg/mL. For the same compound, the MIC ([1]; strain M600, 50 μg/ml Indolmycin) was 110 µg/mL, the MIC ([1]; strain M600, 75 μg/ml Indolmycin) was 110 µg/mL and the MIC ([1]; strain M600, 100 μg/ml Indolmycin) was 70 µg/mL. The “more sensitive in the presence of indolmycin” value ([1]; strain M600, about 100 μg/mL indolmycin) was 1.6 times, the MIC ([2]; Streptomyces coelicolor, B728, 48 h) was 130 µg/mL and the MIC ([2]; strain B728, 10 μg/ml Indolmycin, 30° C., 48 hours) was 130 µg/mL. For the same compound, the MIC ([2]; strain B728, 25 μg/ml Indolmycin, 30° C., 48 hours) was 130 µg/mL, the MIC ([2]; strain B728, 50 μg/ml Indolmycin, 30° C., 48 hours) was 130 µg/mL and the MIC ([2]; strain B728, 75 μg/ml Indolmycin, 30° C., 48 hours) was 130 µg/mL. It also gave an MIC ([2]; strain B728, 100 μg/ml Indolmycin, 30° C., 48 hours) of 130 µg/mL.
For CN=C1NC(=O)[C@H]([C@H](C)c2c[nH]c3ccccc23)O1 [indolmycin], the MIC (S. coelicolor) is listed as over 500 µg/mL, the MIC [3] is listed as 0.5 µg/mL (≈ 1.94 µM) and the MIC (Helicobacter pylori) is listed as 0.016 µg/mL (≈ 0.0622 µM). For the same compound, the Ki [4] was 900 nM and the Ki ([4]; listed as Indolmycin) was about 900 nM.
With CC[C@H]1OC(=O)[C@H](C)[C@@H](O[C@H]2C[C@@](C)(OC)[C@@H](O)[C@H](C)O2)[C@H](C)[C@@H](O[C@@H]2O[C@H](C)C[C@H](N(C)C)[C@H]2O)[C@](C)(O)C[C@@H](C)C(=O)[C@H](C)[C@@H](O)[C@]1(C)O [Erythromycin, erythromycin] the MIC [1, 5] was 110 µg/mL, the MIC [1, 6] was 40 µg/mL and the MIC [1, 7] was 30 µg/mL. It also gave an MIC [1, 8] of 15 µg/mL, an MIC [1, 9] of 10 µg/mL and an MIC [1, 10] of 5 µg/mL. The MIC [2, 11] was 70 µg/mL, the MIC [2, 12] was 50 µg/mL and the MIC [2, 13] was 30 µg/mL. For the same compound, the MIC [2, 14] was 20 µg/mL, the MIC [2, 15] was 10 µg/mL and the MIC [2, 16] was 5 µg/mL.
For O=C(N[C@H](CO)[C@H](O)c1ccc([N+](=O)[O-])cc1)C(Cl)Cl [Chloramphenicol, chloramphenicol], the MIC [1, 5] was 80 µg/mL, the MIC [1, 6] was 35 µg/mL and the MIC [1, 7] was 25 µg/mL. It also gave an MIC [1, 8] of 20 µg/mL, an MIC [1, 9] of 15 µg/mL and an MIC [1, 10] of 10 µg/mL. It also gave an MIC was reduced ([1]; wild-type S. coelicolor, media supplemented with indolmycin) of 10 fold, an MIC [2, 11] of 60 µg/mL and an MIC [2, 12] of 40 µg/mL. For the same compound, the MIC [2, 13] was 30 µg/mL, the MIC [2, 14] was 30 µg/mL and the MIC [2, 15] was 20 µg/mL. The MIC [2, 16] was 20 µg/mL.
